Data reported in patent US20050080122A1, “Anti-viral compounds” (priority 2002, published 2005).

Experiments:
[1] = tested on: Enterovirus; assay: Antiviral assay: virus yield reduction measured by plaque assay in infected cells; format: cell-based
Description: (§1) Representative viruses of the Rhinovirus and Enterovirus genera were chosen for study: Rhinovirus 2 (RV2), Rhinovirus 14 (RV14), Coxsackievirus […] (CVB3) and Echovirus 11 (EV11). Each virus is propogated in two different cell lines as follows: RV2 and RV14 in HEL and HeLa cells, CVB3 in BS-C-1 and HeLa (human cervical adenocarcinoma) cells, EV11 in BS-C-1 (African green monkey kidney, primary) and HEL (human embryonic lung, primary) cells. Propogation of virus strains in two different cell lines is performed as different cell types may utilize different ion transport pathways.
(§2) Antiviral assays are determined as follows. Monolayers of HeLa T cells (human cervical adenocarcinoma) in 12-well plates are infected with 0.01 plaque forming units per cell of Rhinovirus 2 in minimum essential medium with Earle's salts (MEM) supplemented with 1% v/v fetal bovine serum (FBS) or mock-infected with medium for 1 hour. […] Cells are further incubated for 70 hours at 34° C., until extensive cell death is observed in the no drug control. Cells plus culture supernatants are freeze-thawed and virus titre in each sample is determined by plaque assay.

[2] = tested on: HeLa cells; assay: Cytotoxicity on uninfected cells, Alamar Blue metabolic activity; conditions: uninfected HeLa T cells, 70 hours at 34° C.
[3] = tested on: Rhinovirus; assay: Antiviral assay: virus yield reduction measured by plaque assay in infected cells; format: cell-based
Description: as §1, §2

| Structure (SMILES) | effectiveness against Enterovirus [1] | toxicity to HeLa cells compared to the inhibition of virus production [2] | effectiveness against Rhinovirus [3] |
| --- | --- | --- | --- |
| N=C(N)NC(=O)c1nc(Cl)c(N)nc1N [Amiloride] | particularly effective | – | – |
| N=C(NCc1ccccc1)NC(=O)c1nc(Cl)c(N)nc1N [Benzamil] | particularly effective | – | – |
| CCN(c1nc(N)c(C(=O)NC(=N)N)nc1Cl)C(C)C [EIPA, 5-(N-ethyl-N-isopropyl)amiloride] | – | far less toxic | particularly effective |
| COc1ccc(CCN(C)CCCC(C#N)(c2ccc(OC)c(OC)c2)C(C)C)cc1OC (centres unmarked) [Verapamil] | – | – | particularly effective |
